Common to all, as to assay type: in vivo
For experiment [1], the system named is Amaranthus retoflexus (AMARE). The experiment in a line: Post-emergence herbicide glasshouse test. The following applies: post-emergence (sprayed after 8 days cultivation), 250 g/ha, evaluated after 13 days. Here is the method: (§1) Seeds of a variety of test species are sown in standard soil in pots Amaranthus retoflexus (AMARE), Echinochloa crus-galli (ECHCG), Setaria faberi (SETFA)). After cultivation for one day (pre-emergence) or after 8 days cultivation (post-emergence) under controlled conditions in a glasshouse (at 24/16° C., day/night; 14 hours light; 65% humidity), the plants are sprayed with an aqueous spray solution derived from the formulation of the technical active ingredient in acetone/water (50:50) solution containing 0.5% Tween 20 (polyoxyethelyene sorbitan monolaurate, CAS RN 9005-64-5). Compounds are applied at 250 g/ha unless otherwise stated. The test plants are then grown in a glasshouse under controlled conditions in a glasshouse (at 24/16° C., day/night; 14 hours light; 65% humidity) and watered twice daily. After 13 days for pre and post-emergence, the test is evaluated for the percentage damage caused to the plant. The biological activities are shown in the following table on a five-point scale (5=81-100%; 4=61-80%; 3=41-60%; 2=21-40%; 1=0-20%).

Experiment [2] has as its system Echinochloa crus-galli (ECHCG). The experiment can be described thus: Post-emergence herbicide glasshouse test. The following applies: post-emergence (sprayed after 8 days cultivation), 250 g/ha, evaluated after 13 days. Here is the method: as §1
Experiment [3] has as its system Setaria faberi (SETFA). The experiment can be described thus: Post-emergence herbicide glasshouse test. As to conditions: post-emergence (sprayed after 8 days cultivation), 250 g/ha, evaluated after 13 days. Here is the method: as §1
Experiment [4] deals with Amaranthus retoflexus (AMARE). The experiment in a line: Pre-emergence herbicide glasshouse test. As to conditions: pre-emergence (sprayed after one day cultivation), 250 g/ha, evaluated after 13 days. As for the experimental part:
as §1

Experiment [5] concerns Echinochloa crus-galli (ECHCG). The experiment can be described thus: Pre-emergence herbicide glasshouse test. The following applies: pre-emergence (sprayed after one day cultivation), 250 g/ha, evaluated after 13 days. As for the experimental part:
as §1

The subject of experiment [6] is Setaria faberi (SETFA). The experiment in a line: Pre-emergence herbicide glasshouse test. As to conditions: pre-emergence (sprayed after one day cultivation), 250 g/ha, evaluated after 13 days. Here is the method:
as §1

Molecules are shown by their SMILES.

As to `Clc1cnc(Oc2cccc3cccc(Oc4ncc(Cl)cn4)c23)nc1` [Compound 1.001, 5-CHLORO-2-[[8-(5-CHLOROPYRIMIDIN-2-YL)OXY-1-NAPHTHYL]OXY]PYRIMIDINE], the “percentage damage caused to the plant, five-point scale, AMARE” value (“percentage damage caused … AMARE” below) in experiment [1] and in experiment [4] was 3 (3=41-60%) throughout. Moreover, the “percentage damage caused to the plant, five-point scale, ECHCG” value (“percentage damage caused … ECHCG” for short) in experiment [2] is 4 (4=61-80%); in experiment [5], 3 (3=41-60%). Moreover, the “percentage damage caused to the plant, five-point scale, SETFA” value (from here on “percentage damage caused … SETFA”) in the experiment with Setaria faberi (SETFA) [3] and in the experiment on Setaria faberi (SETFA) [6] was 4 (4=61-80%) in each case.

On to `Cc1nc2cccc(Oc3ncc(Cl)cn3)c2c(CCCC(F)(F)F)c1C#N` [Compound 1.043, 5-(5-chloropyrimidin-2-yl) oxy-2-methyl-4-(4,4,4-trifluorobutyl) quinoline-3-carbonitrile], for which the “percentage damage caused … AMARE” value in experiment [1] is recorded as 2 (2=21-40%); in experiment [4], 0. Moreover, the “percentage damage caused … ECHCG” value in experiment [2] and in experiment [5] was 1 (1=0-20%) in each case. Also, the “percentage damage caused … SETFA” value in the experiment with Setaria faberi (SETFA) [3] and in the experiment with Setaria faberi (SETFA) [6] was 2 (2=21-40%) in each case.

For `FC(F)(F)CCOc1nc(C(F)(F)F)nc2cccc(Oc3ncc(Cl)cn3)c12` [Compound 1.006, 5-(5-chloropyrimidin-2-yl)oxy-2-(trifluoromethyl)-4-(3,3,3-trifluoropropoxy)quinazoline], the “percentage damage caused … AMARE” value in experiment [1] and in experiment [4] was 5 (5=81-100%) in each case. Moreover, the “percentage damage caused … ECHCG” value in experiment [2] and in experiment [5] was 3 (3=41-60%) throughout. Further, the “percentage damage caused … SETFA” value is on record as 3 (3=41-60%) in the experiment with Setaria faberi (SETFA) [3] and 5 (5=81-100%) in the experiment on Setaria faberi (SETFA) [6].

`FC(F)(F)CCCc1nc(C2CCCC2)nc2cccc(Oc3ncc(Cl)cn3)c12` [Compound 1.031]: the results for the “percentage damage caused … AMARE” value in experiment [1] and in experiment [4] were 4 (4=61-80%) and 1 (1=0-20%), respectively. Moreover, the “percentage damage caused … ECHCG” value in experiment [2] is reported as 3 (3=41-60%); in experiment [5], 5 (5=81-100%). The entries for the “percentage damage caused … SETFA” value in the experiment with Setaria faberi (SETFA) [3] and in the experiment with Setaria faberi (SETFA) [6] were 3 (3=41-60%) and 5 (5=81-100%), respectively.

On to `FC(F)(F)CCOc1ncnc2cccc(Oc3ncc(Cl)cn3)c12` [Compound 1.008], for which the “percentage damage caused … AMARE” value is listed as 3 (3=41-60%) in experiment [1] and 5 (5=81-100%) in experiment [4]. Moreover, the “percentage damage caused … ECHCG” value in experiment [2] and in experiment [5] was 1 (1=0-20%) each time. For the same molecule, the “percentage damage caused … SETFA” value was 1 (1=0-20%) with Setaria faberi (SETFA) [3] and 5 (5=81-100%) with Setaria faberi (SETFA) [6].

For `CCCCCCc1nc(CCCC(F)(F)F)c2c(Oc3ncc(Cl)cn3)cccc2n1` [Compound 1.032], the results for the “percentage damage caused … AMARE” value in experiment [1] and in experiment [4] were 5 (5=81-100%) and 4 (4=61-80%), respectively. Besides, the “percentage damage caused … ECHCG” value was 3 (3=41-60%) in experiment [2] and 4 (4=61-80%) in experiment [5]. Further, the “percentage damage caused … SETFA” value with Setaria faberi (SETFA) [3] was 3 (3=41-60%); in the experiment with Setaria faberi (SETFA) [6] it was 4 (4=61-80%).

Take `CCCc1nc(CCCC(F)(F)F)c2c(Oc3ncc(Cl)cn3)cccc2n1` [Compound 1.033]: the results for the “percentage damage caused … AMARE” value in experiment [1] and in experiment [4] were 4 (4=61-80%) and 2 (2=21-40%), respectively. For the same molecule, the “percentage damage caused … ECHCG” value in experiment [2] is listed as 3 (3=41-60%); in experiment [5] it was 5 (5=81-100%). In addition, the entries for the “percentage damage caused … SETFA” value in the experiment with Setaria faberi (SETFA) [3] and in the experiment with Setaria faberi (SETFA) [6] were 3 (3=41-60%) and 5 (5=81-100%), respectively.

For the molecule `FC(F)(F)CCOc1nccc2cccc(Oc3ncc(Cl)cn3)c12` [Compound 1.009], the “percentage damage caused … AMARE” value in experiment [1] and in experiment [4] was 1 (1=0-20%) each time. Moreover, the “percentage damage caused … ECHCG” value in experiment [2] and in experiment [5] was 1 (1=0-20%) each time. Also, the “percentage damage caused … SETFA” value in the experiment with Setaria faberi (SETFA) [3] and in the experiment on Setaria faberi (SETFA) [6] was 1 (1=0-20%) in each case.

Take `Cc1nc(OCCC(F)(F)F)c2c(Oc3ncc(Cl)cn3)cccc2n1` [Compound 1.007]: the “percentage damage caused … AMARE” value was 3 (3=41-60%) in experiment [1] and 2 (2=21-40%) in experiment [4]. In addition, the “percentage damage caused … ECHCG” value in experiment [2] and in experiment [5] was 1 (1=0-20%) in each case. The “percentage damage caused … SETFA” value in the experiment with Setaria faberi (SETFA) [3] is 1 (1=0-20%); in the experiment on Setaria faberi (SETFA) [6], 3 (3=41-60%).

For `COc1nc(CCCC(F)(F)F)c2c(Oc3ncc(Cl)cn3)cccc2n1` [Compound 1.014, 5-(5-chloropyrimidin-2-yl)oxy-2-methoxy-4-(4,4,4-trifluorobutyl)quinazoline], the “percentage damage caused … AMARE” value in experiment [1] and in experiment [4] was 5 (5=81-100%) throughout. The “percentage damage caused … ECHCG” value in experiment [2] and in experiment [5] was 5 (5=81-100%) in each case. Besides, the “percentage damage caused … SETFA” value with Setaria faberi (SETFA) [3] and in the experiment with Setaria faberi (SETFA) [6] was 5 (5=81-100%) in each case.

With `FC(F)(F)CCCCc1nc(C(F)(F)F)nc2cccc(Oc3ncc(Cl)cn3)c12` [Compound 1.021], the “percentage damage caused … AMARE” value in experiment [1] and in experiment [4] was 5 (5=81-100%) each time. For the same molecule, the “percentage damage caused … ECHCG” value in experiment [2] is 4 (4=61-80%); in experiment [5], 5 (5=81-100%). The figures for the “percentage damage caused … SETFA” value in the experiment on Setaria faberi (SETFA) [3] and with Setaria faberi (SETFA) [6] were 4 (4=61-80%) and 5 (5=81-100%), respectively.

For `FC(F)(F)CCCc1ncnc2cccc(Oc3ncc(Cl)cn3)c12` [Compound 1.003, 5-(5-chloropyrimidin-2-yl)oxy-4-(4,4,4-trifluorobutyl)quinazoline], the “percentage damage caused … AMARE” value in experiment [1] and in experiment [4] was 5 (5=81-100%) throughout. For the same molecule, the figures for the “percentage damage caused … ECHCG” value in experiment [2] and in experiment [5] were 3 (3=41-60%) and 5 (5=81-100%), respectively. The entries for the “percentage damage caused … SETFA” value in the experiment with Setaria faberi (SETFA) [3] and with Setaria faberi (SETFA) [6] were 3 (3=41-60%) and 5 (5=81-100%), respectively.

As to `FC(F)(F)CCc1nc(C(F)(F)F)nc2cccc(Oc3ncc(Cl)cn3)c12` [Compound 1.022], the figures for the “percentage damage caused … AMARE” value in experiment [1] and in experiment [4] were 4 (4=61-80%) and 5 (5=81-100%), respectively. The “percentage damage caused … ECHCG” value in experiment [2] is 4 (4=61-80%); in experiment [5] it was 5 (5=81-100%). In addition, the “percentage damage caused … SETFA” value is 4 (4=61-80%) in the experiment on Setaria faberi (SETFA) [3] and 5 (5=81-100%) in the experiment on Setaria faberi (SETFA) [6].

As to `FC(F)Oc1cnc(Oc2cccc3nc(C(F)(F)F)nc(CCCC(F)(F)F)c23)nc1` [Compound 1.027], the entries for the “percentage damage caused … AMARE” value in experiment [1] and in experiment [4] were 4 (4=61-80%) and 3 (3=41-60%), respectively. For the same molecule, the “percentage damage caused … ECHCG” value is on record as 1 (1=0-20%) in experiment [2] and 2 (2=21-40%) in experiment [5]. The “percentage damage caused … SETFA” value in the experiment on Setaria faberi (SETFA) [3] was 1 (1=0-20%); with Setaria faberi (SETFA) [6] it was 0.

As for `FC(F)(F)CCCc1nc(Br)nc2cccc(Oc3ncc(Cl)cn3)c12` [Compound 1.029], the “percentage damage caused … AMARE” value in experiment [1] was 4 (4=61-80%); in experiment [4], 1 (1=0-20%). Besides, the “percentage damage caused … ECHCG” value in experiment [2] and in experiment [5] was 1 (1=0-20%) in each case. In addition, the figures for the “percentage damage caused … SETFA” value with Setaria faberi (SETFA) [3] and in the experiment on Setaria faberi (SETFA) [6] were 2 (2=21-40%) and 4 (4=61-80%), respectively.

As for `Cc1nc(CCCC(F)(F)F)c2c(Oc3ncc(Cl)cn3)ccc(Cl)c2n1` [Compound 1.019, 8-chloro-5-(5-chloropyrimidin-2-yl)oxy-2-methyl-4-(4,4,4-trifluorobutyl)quinazoline], the “percentage damage caused … AMARE” value in experiment [1] is recorded as 4 (4=61-80%); in experiment [4] it was 2 (2=21-40%). Moreover, the “percentage damage caused … ECHCG” value in experiment [2] was 3 (3=41-60%); in experiment [5] it was 4 (4=61-80%). Moreover, the entries for the “percentage damage caused … SETFA” value in the experiment on Setaria faberi (SETFA) [3] and with Setaria faberi (SETFA) [6] were 2 (2=21-40%) and 4 (4=61-80%), respectively.
